# According to patent US12697311B2, “Tetrahydrocurcumin compositions, methods of making, and methods of using the same” (Renibus Therapeutics, Inc., priority 2019, dated 2026):
# Entries after “also recorded” stand apart in the source; their conditions may differ.
# Experiment: Plasma pharmacokinetics after single oral dose in male rats
# Format: in vivo
# Details: single 100 mg oral dose; for AUC(0-t) / Cmax / Tmax: rat, plasma, N=3; for AUC(0-t) / Cmax: geometric mean; for Tmax: median
# Protocol: The d6-THCu was formulated at a concentration of 10% w/w in the amounts and ratios provided below:
# Compositions were prepared according to the following process. Set up the 5 L jacketed reaction vessel and Julabo circulation heater. Begin heating the Julabo to 90° C. Dispense Phosal 75 SA, Captex 300, and Labrasol ALF (Items 2, 3, and 4) into appropriately sized containers. Add sthe Phosal 75 SA, Captex 300, and Labrasol ALF to the 5 L reaction vessel. Mix contents until visually homogenous and product reaches a temperature of 85° C.±5° C. Add Tetrahydrocurcumin to vessel containing Phosal 75 SA, Captex 300, and Labrasol ALF while stirring. Mix until completely dissolved and visually homogenous. Reduce the Julabo temperature and allow the solution to cool to 30° C.±5° C. while continuing to stir. Package product by adding 50 mL to appropriate 60 mL bottles. Continue until product is exhausted.
# The d6-THCu version of the compound provides a desirable release profile compared to non-deuterated THCu. Compositions were prepared using THCu as well as d6-THCu and their pk profiles were compared.
# The plasma concentrations of THCu and THCu-d6 was compared by administering single doses of 100 mg to male rats. […] Individual animal pharmacokinetic parameters comparing THCu and d6-THCu is shown in FIG. 4, and statistics for the individual animal pharmacokinetic parameters is shown in FIG. 5.
# Graphs of individual animal plasma concentrations versus time are shown in FIGS. 6-7 (linear axes) and FIGS. 8-9 (semi-logarithmic axes).
Compound,AUC(0-t) [ng·h/mL],Cmax [ng/mL],Tmax [h],plasma concentration versus time / release profile (compared with non-deuterated THCu)
"COc1cc(CCC(=O)CC(=O)CCc2ccc(O)c(OC)c2)ccc1O [THCu, tetrahydrocurcumin]",38300,4070,1,–
"[2H]C([2H])([2H])Oc1cc(CCC(=O)CC(=O)CCc2ccc(O)c(OC([2H])([2H])[2H])c2)ccc1O [THCu-d6, d6-Tetrahydrocurumin]",43000,2820,24,more stable release profile than the non-deuterated version; also recorded: no burst release of active agent after administration
